# Tests used:
# KCC2-S940A = molecular target: T1, KCC2-S940A (Homo sapiens, UniProt Q9H2X9, S963A); test: Tl+ flux assay in HEK-293 cells expressing KCC2-S940A; assay type: cell-based
# T1 construct: expressed in transfected cells; host or cells: HEK-293
# T1 sequence (Q9H2X9 1-1116 isoform Q9H2X9-2 S940A): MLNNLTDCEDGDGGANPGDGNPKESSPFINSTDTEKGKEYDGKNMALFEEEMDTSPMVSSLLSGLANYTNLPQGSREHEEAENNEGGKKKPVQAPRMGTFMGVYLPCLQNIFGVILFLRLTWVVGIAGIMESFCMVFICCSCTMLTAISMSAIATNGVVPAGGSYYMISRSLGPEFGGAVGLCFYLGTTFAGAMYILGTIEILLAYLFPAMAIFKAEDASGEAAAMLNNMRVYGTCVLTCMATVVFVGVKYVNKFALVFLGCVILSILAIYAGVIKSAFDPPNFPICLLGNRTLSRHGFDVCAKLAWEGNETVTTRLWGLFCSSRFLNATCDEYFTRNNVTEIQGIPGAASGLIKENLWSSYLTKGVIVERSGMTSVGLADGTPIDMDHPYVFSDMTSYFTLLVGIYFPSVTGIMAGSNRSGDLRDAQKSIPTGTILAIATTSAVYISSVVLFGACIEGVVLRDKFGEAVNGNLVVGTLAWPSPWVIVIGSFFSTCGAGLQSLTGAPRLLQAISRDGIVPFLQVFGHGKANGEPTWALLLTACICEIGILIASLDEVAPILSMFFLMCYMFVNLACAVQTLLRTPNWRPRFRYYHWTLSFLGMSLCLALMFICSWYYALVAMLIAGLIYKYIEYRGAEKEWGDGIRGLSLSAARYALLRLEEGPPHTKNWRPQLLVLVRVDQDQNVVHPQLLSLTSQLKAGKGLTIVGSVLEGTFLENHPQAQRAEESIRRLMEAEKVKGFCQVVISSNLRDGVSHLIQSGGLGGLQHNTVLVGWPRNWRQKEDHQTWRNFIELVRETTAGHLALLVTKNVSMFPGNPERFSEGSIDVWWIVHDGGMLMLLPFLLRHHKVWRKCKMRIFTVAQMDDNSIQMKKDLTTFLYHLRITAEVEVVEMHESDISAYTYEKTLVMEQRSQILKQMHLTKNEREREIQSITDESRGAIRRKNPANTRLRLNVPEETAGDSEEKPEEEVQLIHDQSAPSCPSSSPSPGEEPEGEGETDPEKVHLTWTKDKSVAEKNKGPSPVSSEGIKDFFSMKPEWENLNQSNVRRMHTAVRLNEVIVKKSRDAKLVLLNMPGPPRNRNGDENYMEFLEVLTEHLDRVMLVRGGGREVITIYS
# Procedure: (§1) FLIPR TI Flux assay. HEK-293 cells were washed with HBSS, and then incubated with loading buffer containing TI sensitive fluorescent dye (https://www.moleculardevices.com), 20 μM bumetanide 20 μM ouabain and 2.5 mM probenecid for 1 h at room temperature (RT) under control conditions or with drugs in the dark using a FlexStation 3 microplate reader (Molecular Devices) and imaged […] for 30 min. Stimulus buffer was added containing 5 mM K^+/0.5 mM Tl^+ and cells were imaged every 1.5 over a 190 second time course The initial rate Tl^+ uptake (Relative Fluorescence Units (RFU) per second) was determined following addition of the stimulus buffer as outlined previously (Conway et al., 2017, supra) (Lee et al., 2022, supra).
# (§2) Several studies have shown that the activity and plasma membrane accumulation of KCC2 is potentiated via phosphorylation of S940, a process mediated by the activity of protein kinase C and protein phosphatase 1 (Lee et al., 2011, supra; Lee et al., J Biol Chem 282, 29777-29784 (2007); Moore et al., Proc. Natl. Acad. Sci. U.S.A 115, 10166-10171 (2018); Moore et al., Trends Neurosci. 40, 555-571 (2017); Silayeva et al., Proc. Natl. Acad. Sci. U.S.A 112, 3523-3528 (2015)). […] Compared to KCC2, effects on KCC3, KCC4, and NKCC1 were only seen at concentrations more than 35-fold that of KCC2 (≥100 μM) (FIG. 1G).
# KCC3 = molecular target: T2, KCC3 (Homo sapiens, UniProt Q9UHW9); test: Tl+ flux assay in HEK-293 cells expressing KCC3; assay type: cell-based; conditions: read-out: concentration at which effects on KCC3 were seen (EC50 chart, FIG. 1G)
# T2 construct: expressed in transfected cells; host or cells: HEK-293
# T2 sequence (Q9UHW9 1-1150): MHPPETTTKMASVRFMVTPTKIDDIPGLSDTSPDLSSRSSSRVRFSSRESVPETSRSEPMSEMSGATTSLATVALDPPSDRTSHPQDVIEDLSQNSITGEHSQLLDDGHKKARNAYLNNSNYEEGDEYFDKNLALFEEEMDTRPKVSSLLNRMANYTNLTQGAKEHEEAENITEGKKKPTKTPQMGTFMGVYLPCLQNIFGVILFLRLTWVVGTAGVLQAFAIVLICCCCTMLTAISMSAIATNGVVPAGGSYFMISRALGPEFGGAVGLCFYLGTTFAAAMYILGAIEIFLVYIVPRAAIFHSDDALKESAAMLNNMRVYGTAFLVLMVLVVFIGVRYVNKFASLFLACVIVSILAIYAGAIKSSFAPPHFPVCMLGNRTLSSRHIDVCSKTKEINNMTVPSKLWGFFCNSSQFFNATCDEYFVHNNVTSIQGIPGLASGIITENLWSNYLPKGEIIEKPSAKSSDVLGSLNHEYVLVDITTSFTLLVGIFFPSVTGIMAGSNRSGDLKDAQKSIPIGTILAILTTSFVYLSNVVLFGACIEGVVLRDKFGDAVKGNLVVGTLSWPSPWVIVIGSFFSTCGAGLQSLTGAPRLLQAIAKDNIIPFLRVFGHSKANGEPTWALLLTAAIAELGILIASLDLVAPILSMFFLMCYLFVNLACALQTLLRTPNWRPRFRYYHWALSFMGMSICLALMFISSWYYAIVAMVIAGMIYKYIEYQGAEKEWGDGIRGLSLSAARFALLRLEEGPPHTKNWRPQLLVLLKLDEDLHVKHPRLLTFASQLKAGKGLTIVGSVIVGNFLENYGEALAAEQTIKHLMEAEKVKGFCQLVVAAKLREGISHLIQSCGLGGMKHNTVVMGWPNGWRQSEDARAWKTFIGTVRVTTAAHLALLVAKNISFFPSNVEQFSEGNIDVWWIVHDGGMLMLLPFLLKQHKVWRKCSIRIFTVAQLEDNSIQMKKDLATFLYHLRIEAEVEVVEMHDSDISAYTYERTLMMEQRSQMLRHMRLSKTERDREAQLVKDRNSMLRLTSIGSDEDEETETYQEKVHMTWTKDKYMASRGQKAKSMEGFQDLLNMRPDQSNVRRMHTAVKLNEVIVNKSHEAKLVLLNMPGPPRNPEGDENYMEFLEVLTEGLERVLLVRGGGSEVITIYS
# Procedure: as §1, §2
smiles,measurement,setting,value
"C[C@@H]1CN(c2nc3c(c(Nc4ccc(C5CCCCC5)cc4)n2)COC3)CCO1 [Compound A, (R)—N-(4-cyclohexylphenyl)-2-(2-methylmorpholino)-5,7-dihydrofuro[3,4-d]pyrimidin-4-amine]",activity of KCC2-S940A construct,KCC2-S940A,increased the activity
same,EC50,KCC3,≥ 100 µM
